Test results from patent publication US20150045312A1, “Use of Compounds Elevating Glutathione Levels for the Treatment of Autism, Autistic Spectrum Disorders and Fragile X Syndrome” (Promentis Pharmaceuticals, Inc., priority 2013, published 2015).
Blank lines part the entries; values can stand above or below the compound they belong to.

What was measured:
[1] = in vivo; cited from earlier work
[2] = cited from earlier work
[3] = pre-pulse inhibition (PPI) efficacy model of neuropsychiatric disease activity; format: in vivo
[4] = elevated plus maze (EPM) efficacy model of neuropsychiatric disease activity; format: in vivo; conditions: orally-active
[5] = schizophrenia, bipolar disorder, obsessive-compulsive disorder, autism; cited from earlier work
[6] = autistic patients, added to risperidone treatment; cited from earlier work
system xc− = biological target: T1, system xc− (Homo sapiens, UniProt Q9UPY5); experiment: in vitro screening assay in human glial cells from brain astrocytoma (1321N1); format: cell-based; conditions: 1321N1 cells, high system xc− expression
T1 construct: a cell line with high system xc− expression; endogenous in cells; host or cells: 1321N1 human astrocytoma cells
T1 sequence (Q9UPY5 1-501): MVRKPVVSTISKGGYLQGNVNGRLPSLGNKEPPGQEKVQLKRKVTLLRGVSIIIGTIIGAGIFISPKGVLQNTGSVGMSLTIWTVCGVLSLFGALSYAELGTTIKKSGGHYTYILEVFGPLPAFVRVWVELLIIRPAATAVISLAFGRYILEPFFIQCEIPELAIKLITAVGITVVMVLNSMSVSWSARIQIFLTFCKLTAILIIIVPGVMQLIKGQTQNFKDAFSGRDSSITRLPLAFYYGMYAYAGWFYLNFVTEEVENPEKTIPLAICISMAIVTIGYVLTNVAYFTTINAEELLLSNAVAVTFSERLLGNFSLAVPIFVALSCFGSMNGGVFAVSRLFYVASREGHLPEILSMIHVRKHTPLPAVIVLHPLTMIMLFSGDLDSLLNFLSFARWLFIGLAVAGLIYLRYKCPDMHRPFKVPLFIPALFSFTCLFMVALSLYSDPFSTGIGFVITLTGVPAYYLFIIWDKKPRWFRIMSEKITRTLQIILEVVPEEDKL
T1 sequence (P08195 1-529 partner): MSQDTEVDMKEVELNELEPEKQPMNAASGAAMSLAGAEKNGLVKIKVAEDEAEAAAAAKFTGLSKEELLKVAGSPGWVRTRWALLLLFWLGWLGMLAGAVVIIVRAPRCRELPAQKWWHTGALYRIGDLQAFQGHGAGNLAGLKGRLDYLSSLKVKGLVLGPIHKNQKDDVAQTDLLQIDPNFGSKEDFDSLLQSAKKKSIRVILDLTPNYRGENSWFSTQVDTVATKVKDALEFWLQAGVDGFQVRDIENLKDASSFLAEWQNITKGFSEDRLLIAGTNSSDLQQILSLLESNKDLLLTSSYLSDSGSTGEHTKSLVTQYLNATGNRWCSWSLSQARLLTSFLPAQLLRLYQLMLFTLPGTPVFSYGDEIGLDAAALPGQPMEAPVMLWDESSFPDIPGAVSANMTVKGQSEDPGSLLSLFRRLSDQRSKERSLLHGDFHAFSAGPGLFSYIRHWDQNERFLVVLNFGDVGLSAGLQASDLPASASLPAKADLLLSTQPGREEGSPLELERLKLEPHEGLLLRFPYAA
From the text: Using an in vitro screening assay conducted in human glial cells from brain astrocytoma (1321N1), a cell line with high system xc− expression, the compound with the following formula: […]
Using an in vitro screening assay conducted in human glial cells from brain astrocytoma (1321N1), a cell line with high System xc− expression, the compound with the following formula: […]

Structure (SMILES): N[C@@H](CCC(=O)N[C@@H](CS)C(=O)NCC(=O)O)C(=O)O [glutathione]
- entry into the CNS [1]: do not readily enter the CNS
- solubility characteristics [2]: poor solubility characteristics

Structure (SMILES): O=C(Cc1ccccc1)N[C@@H](CSC(c1ccccc1)(c1ccccc1)c1ccccc1)C(=O)O [drawing 16]
- response in PPI model compared with clozapine ([3]; at a comparable dose range, similar to clozapine): antipsychotic-like response
- behavioral effects in PPI model ([3]; orally-active): significant behavioral effects
- behavioral effects in EPM model [4]: significant behavioral effects

Structure (SMILES): CC(=O)N[C@@H](CS)C(=O)O [NAC, N-acetyl cysteine]
- symptoms of mental disorders [5]: modestly improve symptoms
- irritability versus risperidone+placebo [6]: significantly decrease irritability
- entry into the CNS [1]: do not readily enter the CNS
- solubility characteristics [2]: poor solubility characteristics

- 3H-glutamate (system xc−): significant elevations
- uptake of 14C-cystine (system xc−): robust and significant decrease
Structure (SMILES): O=C(Cc1ccccc1)N[C@@H](CSC(c1ccccc1)(c1ccccc1)c1ccccc1)C(=O)O [drawing 15]
